The molecules below were run against BRD4-BD1 (Homo sapiens (Human), UniProt O60885) (assay: BRD4-H4 tetraacetylated peptide inhibition AlphaScreen). Conditions: GST-BRD4-BD1 (aa 44-168) with biotinylated Acetyl-Histone H4 (Lys5, 8, 12, 16) peptide.
Format: binding
Experimental: Biological Methods BRD4-H4 Tetraacetylated Peptide Inhibition AlphaScreen
Compounds are diluted in serial dilution 1:5 in assay buffer from 10 mM stock in DMSO (100 μM start concentration) in white OptiPlate-384 (PerkinElmer). A mix consisting of 15 nM GST-BRD4-BD1 protein (aa 44-168) or 150 nM GST-BRD4-BD2 (aa 333-460) and 15 nM biotinylated Acetyl-Histone H4 (Lys5, 8, 12, 16) peptide is prepared in assay buffer (50 mM HEPES pH=7.4; 25 mM NaCl; 0.05% Tween 20; 0.1% bovine serum albumin (BSA); 10 mM dithiothreitol (DTT)). 6 μl of the mix is added to the compound dilutions. Subsequently, 6 μl of premixed AlphaLISA Glutathione Acceptor Beads and AlphaScreen Streptavidin Donor Beads from PerkinElmer (in assay buffer at a concentration of 10 μg/ml each) are added and the samples are incubated for 30 min at RT in the dark (shaking 300 rpm). Afterwards, the signal is measured in a PerkinElmer Envision HTS Multilabel Reader using the AlphaScreen protocol from PerkinElmer. Each plate contains negative controls where biotinylated Acetyl-Histone H4 peptide and GST-BRD4-BD1 or GST-BRD4-BD2 are left out and replaced by assay buffer. Negative control values are entered as low basis value when using the software GraphPad Prism for calculations. Furthermore, a positive control (probe molecule JQ1+ with protein/peptide mix) is pipetted. Determination of IC50 values are carried out using GraphPad Prism 3.03 software (or updates thereof).

IC50 [nM] | SMILES
13 | Cc1nnc2c(NC(C)C)nc(-c3nc4cnc(N(C)C)cc4n3Cc3ccccn3)cn12 [III-31]
12 | CNc1nc(-c2nc3cnc(N4CCN(C)CC4)cc3n2Cc2ccncc2)cn2c(C)nnc12 [III-53]
74 | Cc1nnc2c(NC(C)C)nc(-c3nc4cnc(N5CCOC[C@@H]5C)cc4n3[C@@H](C)c3ccccn3)cn12 [III-41]
18 | Cc1nnc2c(NC(C)C)nc(-c3nc4cnc(C(C)C)cc4n3Cc3ccccn3)cn12 [III-40]
14 | Cc1nnc2c(NC(C)C)nc(-c3nc4cnccc4n3Cc3ccccn3)cn12 [III-37]
4 | CNc1nc(-c2nc3cnc(N4CCOCC4)cc3n2Cc2cccnc2)cn2c(C)nnc12 [III-49]
5 | CNc1nc(-c2nc3ccc(N4CCOCC4)cc3n2Cc2cccnc2)cn2c(C)nnc12 [III-50]
13 | Cc1nnc2c(N[C@@H]3CCOC3)nc(-c3nc4cnc(N5CCOCC5)cc4n3Cc3cccnc3)cn12 [III-51]
28 | Cc1cc2c(cn1)nc(-c1cn3c(C)nnc3c(NC(C)C)n1)n2Cc1ccccn1 [III-36]
32 | Cc1nnc2c(NC(C)C)nc(-c3nc4ccc(C5CCOCC5)cc4n3Cc3ccccn3)cn12 [III-44]
126 | COc1cc2c(cn1)nc(-c1cn3c(C)nnc3c(NC(C)C)n1)n2Cc1ccccn1 [III-39]
17 | Cc1cccc(Cn2c(-c3cn4c(C)nnc4c(NC(C)C)n3)nc3cnc(N4CCOCC4)cc32)n1 [III-38]
20 | Cc1nnc2c(NC(C)C)nc(-c3nc4ccccc4n3Cc3ccccn3)cn12 [III-33]
243 | Cc1nnc2c(NC(C)C)nc(-c3nc4ccc(C(C)C)cc4n3[C@@H](C)c3ccccn3)cn12 [III-46]
45 | COc1ccc2nc(-c3cn4c(C)nnc4c(NC(C)C)n3)n(Cc3ccccn3)c2c1 [III-34]
34 | Cc1nnc2c(NC(C)C)nc(-c3nc4cnc(C5CCOCC5)cc4n3Cc3ccccn3)cn12 [III-43]
7 | Cc1nnc2c(NC(C)C)nc(-c3nc4ccc(N(C)C)cc4n3Cc3ccccn3)cn12 [III-32]
15 | Cc1ccc2nc(-c3cn4c(C)nnc4c(NC(C)C)n3)n(Cc3ccccn3)c2c1 [III-35]
8 | CNc1nc(-c2nc3ccc(N4CCN(C)CC4)cc3n2Cc2cccnc2)cn2c(C)nnc12 [III-48]
69 | Cc1nnc2c(NC(C)C)nc(-c3nc4ccc(C5CCOCC5)cc4n3[C@@H](C)c3ccccn3)cn12 [III-45]
31 | Cc1cc2c(cn1)nc(-c1cn3c(C)nnc3c(N[C@@H]3CCOC3)n1)n2Cc1cccnc1 [III-52]

More lines, now with the values behind:

SMILES | IC50 [nM]
Cc1nnc2c(NC(C)C)nc(-c3nc4cnc(N5CCOC[C@H]5C)cc4n3Cc3ccccn3)cn12 [III-29] | 9
CNc1nc(-c2nc(C)c(C)n2Cc2ccccc2)cn2c(C)nnc12 [II-2] | 15
COCCN1CCC(Nc2nc(-c3nc4ccccc4n3Cc3ccc(F)cc3)cn3c(C)nnc23)CC1 [III-5] | 9
COCCN1CCC(Nc2nc(-c3nc4ccccc4n3Cc3ccc(F)c(F)c3)cn3c(C)nnc23)CC1 [III-6] | 9
CNc1nc(-c2nc3ccc(N4CCN(C)CC4)cc3n2Cc2ccccc2)cn2c(C)nnc12 [III-13] | 9
CNc1nc(-c2nc3cnc(N4CCOCC4)cc3n2Cc2ccccn2)cn2c(C)nnc12 [III-22] | 3
CCNc1nc(-c2nc3cnc(N4CCN(C)CC4)cc3n2Cc2ccccc2)cn2c(C)nnc12 [III-17] | 17
Cc1nnc2c(NC(C)C)nc(-c3nc4cnc(N5CCOCC5)cc4n3Cc3ccc(F)cn3)cn12 [III-28] | 1
COCCN1CCC(Nc2nc(-c3nc4cc(C5=NNC(=O)CC5C)ccc4n3Cc3ccccc3)cn3c(C)nnc23)CC1 (stereo not drawn) [III-15] | 3
CNc1nc(-c2nc3cc(C4=NNC(=O)CC4C)ccc3n2Cc2ccccc2)cn2c(C)nnc12 (stereo not drawn) [III-16] | 5
CNc1nc(-c2nc3cnc(N4CCN(C)CC4)cc3n2Cc2cccnc2)cn2c(C)nnc12 [III-47] | 12
Cc1nnc2c(N[C@@H]3CCOC3)nc(-c3nc4cnc(N5CCOCC5)cc4n3Cc3ccccn3)cn12 [III-24] | 20
Cc1nc(-c2cnn(C)c2Oc2ccccc2)cn2c(C)nnc12 [Example I-3] | 41
Cc1nnc2c(NC(C)C)nc(-c3nc4ccc(N5CCOCC5)cc4n3Cc3ccccn3)cn12 [III-26] | 5
Cc1nnc2c(NC(C)C)nc(-c3nc4cnc(N5CCOC[C@@H]5C)cc4n3Cc3ccccn3)cn12 [III-30] | 9
COCCN1CCC(Nc2nc(-c3nc4ccc(N5CCOCC5)cc4n3Cc3ccccc3)cn3c(C)nnc23)CC1 [III-12] | 7
CNc1nc(-c2nc3ccc(N4CCOCC4)cc3n2Cc2ccccn2)cn2c(C)nnc12 [III-23] | 3
CNc1nc(-c2nc3cc(C4CCOCC4)ccc3n2Cc2ccccn2)cn2c(C)nnc12 [III-25] | 11
Cc1nnc2c(NC(C)C)nc(-c3nc4cnc(N5CCOC[C@@H]5C)cc4n3[C@@H](C)c3ccccc3)cn12 [III-19] | 38
CNc1nc(-c2nc3ccc(N4CCOCC4)cc3n2Cc2ccccc2)cn2c(C)nnc12 [III-14] | 10

SMILES | IC50 [nM]
CNc1nc(-c2nc3cnc(N4CCN(C)CC4)cc3n2Cc2ccccn2)cn2c(C)nnc12 [III-20] | 13
Cc1nnc2c(NC(C)C)nc(-c3nc4cnc(N5CCOCC5)cc4n3Cc3ccccn3)cn12 [III-27] | 10
COCCN1CCC(Nc2nc(-c3nc4ccccc4n3[C@H](C)c3ccccc3)cn3c(C)nnc23)CC1 [III-3] | 49
CNc1nc(-c2nc3ccccc3n2Cc2ccccc2)cn2c(C)nnc12 [III-7] | 22
COCCN1CCC(Nc2nc(-c3nc4ccccc4n3Cc3ccccc3)cn3c(C)nnc23)CC1 [III-4] | 8
CNc1nc(-c2nc(-c3ccccc3)c(C)n2Cc2ccccc2)cn2c(C)nnc12 [II-1, 6-(1-benzyl-5-methyl-4-phenyl-1H-imidazol-2-yl)-N,3-dimethyl-[1,2,4]triazolo[4,3-a]pyrazin-8-amine] | 4
CNc1nc(-c2nc3ccc(N4CCN(C)CC4)cc3n2Cc2ccccn2)cn2c(C)nnc12 [III-21] | 8
Cc1nnc2c(NC(C)C)nc(-c3nc4cnc(N5CCN(C)CC5)cc4n3Cc3ccccc3)cn12 [III-18] | 26
Cc1nnc2c(NC(C)C)nc(-c3nc4cnc(C(C)C)cc4n3[C@@H](C)c3ccccn3)cn12 [III-42] | 66
Cc1nc(-c2cn3c(C)nnc3c(C)n2)n(Cc2ccccc2)c1C [II-3] | 31
Cc1nc(-c2nc3cnc(N4CCN(C)CC4)cc3n2Cc2ccccc2)cn2c(C)nnc12 [III-9] | 14
CNc1nc(-c2nc3cccnc3n2Cc2ccccc2)cn2c(C)nnc12 [III-10] | 18
CNc1nc(-c2nc3cnc(N4CCN(C)CC4)cc3n2Cc2ccccc2)cn2c(C)nnc12 [III-8] | 9
CNc1nc(-c2cn(C)nc2Cc2ccccc2)cn2c(C)nnc12 [Example I-1, 6-(3-benzyl-1-methyl-1H-pyrazol-4-yl)-N,3-dimethyl-[1,2,4]triazolo[4,3-a]pyrazin-8-amine] | 61
COCCN1CCC(Nc2nc(-c3nc4ccccc4n3[C@@H](C)c3ccccc3)cn3c(C)nnc23)CC1 [III-2] | 41
CNc1nc(-c2cnn(C)c2Oc2ccccc2)cn2c(C)nnc12 [Example I-2] | 41
CNc1nc(-c2nn(C)c(C)c2Cc2ccccc2)cn2c(C)nnc12 [Example I-4] | 18
CNc1nc(-c2nc3cnc(N4CCN(C)CC4)nc3n2Cc2ccccc2)cn2c(C)nnc12 [III-11] | 9
Cc1nnc2c(NC3CCN(C)CC3)nc(-c3nc4ccccc4n3Cc3ccccc3)cn12 [III-1, N-[6-(1-benzyl-1H-1,3-benzodiazol-2-yl)-3-methyl-[1,2,4]triazolo[4,3-a]pyrazin-8-yl]-1-methylpiperidin-4-amine] | 7

— patent US9266891B2, “Substituted [1,2,4]triazolo[4,3-A]pyrazines that are BRD4 inhibitors” (Boehringer Ingelheim International GmbH, priority 2012, dated 2016)
